Measured values taken from patent EP0477107B1, “Steroids contained in cyclodextrins” (Laboratoires BESINS ISCOVESCO Société anonyme dite :, priority 1990, dated 1992).
≈ marks a conversion by molar mass, not a printed value. Like-named read-outs stand apart in the source and are kept apart here.

Experiment: Saturation solubility of steroids in water and in aqueous cyclodextrin solutions (25°, 72 h stirring, filtration, assay of supernatant)
Type: physicochemical
Method: On réalise des solutions de bétacyclodextrines à différentes concentrations de 0 à 5mM. A ces différentes solutions, on ajoute de la prégnane-5-béta-ol-3alpha-one-20 par pincées et ce jusqu'à apparition d'un précipité. On met sous agitation magnétique à 25° pendant 72 heures en prenant soin de vérifier à intervalles réguliers qu'il y a toujours saturation en stéroïdes. Au bout de 72 heures, on filtre les solutions ainsi réalisées et on dose le surnageant. Les résultats obtenus font l'objet de la courbe de la figure 1.
Excepté la concentration en ladite cyclodextrine qui varie de 0 à 32mM, on procède selon le même protocole qu'à l'exemple 1; les résultats sont illustrés par la courbe de la figure 2.
On procède selon le même protocole qu'à l'exemple 1. Les résultats sont représentés par la courbe de la figure 3.
On travaille selon les mêmes conditions qu'à l'exemple 1. Les résultats obtenus sont schématisés par la courbe de la figure 4.
On suit encore le même protocole qu'à l'exemple 1 sauf en ce que la concentration en bétacyclodextrine varie de 0 à 4mM et les résultats font l'objet de la courbe de la figure 5.
Ici encore on suit le même protocole qu'à l'exemple 1 sauf en ce que la concentration en hydroxypropybéta-cyclodextrine varie de 0 à 32mM et les résultats sont représentés par la courbe de la figure 6.

**Q.** For `CC(=O)[C@H]1CC[C@H]2[C@@H]3CC[C@@H]4C[C@H](O)CC[C@]4(C)[C@H]3CC[C@]12C` [Prégnanolone, prégnanol-3alpha-one-20], which solubility at 72 h (water + betacyclodextrin, read-out: SOLUBILITE EN GRAMMES PAR LITRE dans eau + bétacyclodextrine) is on record?
**A.** The solubility at 72 h was 440 µg/mL.

**Q.** And the solubility at 72 h (water + hydroxypropylbetacyclodextrin, optimal solubility read from the curves at the adequate hydroxypropylbétacyclodextrine concentration (up to 32mM), 25°, 72 h, read-out: SOLUBILITE EN GRAMMES PAR LITRE dans eau + hydroxypropylbétacyclodextrine)?
**A.** The solubility at 72 h was 3000 µg/mL.

**Q.** What about the solubility at 72 h (water without cyclodextrin, 25°, 72 h, read-out: SOLUBILITE EN GRAMMES PAR LITRE dans l'eau) of the same molecule?
**A.** The solubility at 72 h was 5 µg/mL (≈ 15.7 µM).

**Q.** Which “SOLUBILITE EN GRAMMES PAR LITRE dans eau + bétacyclodextrine” value (optimal solubility read from the curves at the adequate bétacyclodextrine concentration (0 to 5mM; 0 to 4mM for dihydro-4-progestérone), 25°, 72 h) does the source give for “prégnane-diol-3,20 [Dihydroprogestérone]” here?
**A.** Its value is 0,06 GRAMMES PAR LITRE.

**Q.** What about the “SOLUBILITE EN GRAMMES PAR LITRE dans eau + hydroxypropylbétacyclodextrine” value (optimal solubility read from the curves at the adequate hydroxypropylbétacyclodextrine concentration (up to 32mM), 25°, 72 h) of the same molecule?
**A.** Its value is 1,4 GRAMMES PAR LITRE.

**Q.** And the “SOLUBILITE EN GRAMMES PAR LITRE dans l'eau” value (water without cyclodextrin, 25°, 72 h)?
**A.** Its value is 0,005 GRAMMES PAR LITRE.
